Test results taken from ChEMBL document CHEMBL3885861, “Open TG-GATES”.

Organism: Rattus norvegicus
Test: Open TG-GATES - Regimen: Single
Assay type: toxicity, organism-based, Sprague-Dawley
Parameters: regimen Single, gender Male, age 6 weeks
Conditions: in vivo, po, route gavage; for APTT / Bas / Eos / Fbg / Hb / Ht / Lym / MCH / MCHC / MCV / Mono / Neu / PT / Plat / RBC / Ret / WBC: tissue Blood; for KIDNEY_L / KIDNEY_R / KIDNEY_TOTAL: tissue Kidney; for LIVER: tissue Liver; for A/G / ALP / ALT / AST / BUN / CRE / Ca / Cl / DBIL / GLC / IP / K / LDH / Na / PL / RALB / TBIL / TC / TG / TP / gamma-GTP: tissue Plasma
[1] = 50 mg/kg, 3 h, dose level Middle
[2] = 50 mg/kg, 6 h, dose level Middle
[3] = 50 mg/kg, 9 h, dose level Middle
[4] = 50 mg/kg, 24 h, dose level Middle
[5] = 150 mg/kg, 3 h, dose level High
[6] = 150 mg/kg, 6 h, dose level High
[7] = 150 mg/kg, 9 h, dose level High
[8] = 150 mg/kg, 24 h, dose level High

## O=c1ccc2ccccc2o1 [COUMARIN]
[1]
  TERMINAL_BW: 184.1 g
  APTT: 16.3 s
  Bas: 0%
  Eos: 0.6%
  Fbg: 198 mg/dL
  Hb: 13.4 g/dL
  Ht: 40.4%
  Lym: 81.4%
  MCH: 21.9 pg
  MCHC: 33.2%
  MCV: 65.9 fL
  Mono: 4%
  Neu: 14.2%
  PT: 12.7 s
  Plat: 114.8 x10_4/uL
  RBC: 613.6 x10_4/ul
  Ret: 9.3%
  WBC: 104.2 x10_2/uL
  KIDNEY_L: 0.9 g
  KIDNEY_R: 0.9 g
  KIDNEY_TOTAL: 1.7 g
  LIVER: 8.1 g
  A/G: 2.3
  ALP: 989.4 IU/L
  ALT: 39.4 IU/L
  AST: 68 IU/L
  BUN: 12 mg/dL
  CRE: 0.5 mg/dL
  Ca: 10.7 mg/dL
  Cl: 103.2 meq/L
  DBIL: 0.032 mg/dL
  GLC: 191.4 mg/dL
  IP: 10.4 mg/dL
  K: 4.7 meq/L
  LDH: 74.4 IU/L
  Na: 138 meq/L
  PL: 141 mg/dL
  RALB: 3.8 g/dL
  TBIL: 0.3 mg/dL
  TC: 76.4 mg/dL
  TG: 49.8 mg/dL
  TP: 5.5 g/dL
  gamma-GTP: 1 IU/L
[2]
  TERMINAL_BW: 180.4 g
  APTT: 16.5 s
  Bas: 0%
  Eos: 0.8%
  Fbg: 210.2 mg/dL
  Hb: 13.5 g/dL
  Ht: 40.4%
  Lym: 79.8%
  MCH: 21.7 pg
  MCHC: 33.3%
  MCV: 65 fL
  Mono: 5.8%
  Neu: 13.8%
  PT: 12.8 s
  Plat: 104.8 x10_4/uL
  RBC: 620.8 x10_4/ul
  Ret: 9.7%
  WBC: 103 x10_2/uL
  KIDNEY_L: 0.8 g
  KIDNEY_R: 0.9 g
  KIDNEY_TOTAL: 1.7 g
  LIVER: 7.7 g
  A/G: 2.1
  ALP: 1018 IU/L
  ALT: 37.2 IU/L
  AST: 70 IU/L
  BUN: 11.4 mg/dL
  CRE: 0.5 mg/dL
  Ca: 10.4 mg/dL
  Cl: 106 meq/L
  DBIL: 0.004 mg/dL
  GLC: 183 mg/dL
  IP: 10.2 mg/dL
  K: 5 meq/L
  LDH: 98.6 IU/L
  Na: 138.4 meq/L
  PL: 155.6 mg/dL
  RALB: 3.7 g/dL
  TBIL: 0.3 mg/dL
  TC: 89 mg/dL
  TG: 62.4 mg/dL
  TP: 5.6 g/dL
  gamma-GTP: 1.4 IU/L
[3]
  TERMINAL_BW: 175.7 g
  APTT: 16.7 s
  Bas: 0%
  Eos: 0.6%
  Fbg: 186.4 mg/dL
  Hb: 13.3 g/dL
  Ht: 40.2%
  Lym: 77.6%
  MCH: 22.1 pg
  MCHC: 33.2%
  MCV: 66.6 fL
  Mono: 6.2%
  Neu: 15.6%
  PT: 13 s
  Plat: 102.3 x10_4/uL
  RBC: 606 x10_4/ul
  Ret: 9.6%
  WBC: 95.4 x10_2/uL
  KIDNEY_L: 0.8 g
  KIDNEY_R: 0.8 g
  KIDNEY_TOTAL: 1.7 g
  LIVER: 7.2 g
  A/G: 2.1
  ALP: 1020.8 IU/L
  ALT: 38.6 IU/L
  AST: 74.2 IU/L
  BUN: 11.4 mg/dL
  CRE: 0.5 mg/dL
  Ca: 11.1 mg/dL
  Cl: 106 meq/L
  DBIL: 0.052 mg/dL
  GLC: 189.6 mg/dL
  IP: 10.7 mg/dL
  K: 5.1 meq/L
  LDH: 104.6 IU/L
  Na: 139 meq/L
  PL: 141.4 mg/dL
  RALB: 3.7 g/dL
  TBIL: 0.3 mg/dL
  TC: 79.4 mg/dL
  TG: 63 mg/dL
  TP: 5.5 g/dL
  gamma-GTP: 1 IU/L
[4]
  TERMINAL_BW: 189.1 g
  APTT: 15.5 s
  Bas: 0%
  Eos: 1.6%
  Fbg: 192 mg/dL
  Hb: 13.4 g/dL
  Ht: 40.2%
  Lym: 76.4%
  MCH: 22 pg
  MCHC: 33.4%
  MCV: 66 fL
  Mono: 11.4%
  Neu: 11.2%
  PT: 12.4 s
  Plat: 110.8 x10_4/uL
  RBC: 609 x10_4/ul
  Ret: 8.4%
  WBC: 100 x10_2/uL
  KIDNEY_L: 0.9 g
  KIDNEY_R: 0.9 g
  KIDNEY_TOTAL: 1.8 g
  LIVER: 9.4 g
  A/G: 2.3
  ALP: 978.2 IU/L
  ALT: 48 IU/L
  AST: 74.6 IU/L
  BUN: 15 mg/dL
  CRE: 0.6 mg/dL
  Ca: 10.9 mg/dL
  Cl: 105.8 meq/L
  DBIL: 0.012 mg/dL
  GLC: 186.8 mg/dL
  IP: 8 mg/dL
  K: 5.1 meq/L
  LDH: 113 IU/L
  Na: 138.2 meq/L
  PL: 140.2 mg/dL
  RALB: 3.8 g/dL
  TBIL: 0.3 mg/dL
  TC: 77 mg/dL
  TG: 66.6 mg/dL
  TP: 5.5 g/dL
  gamma-GTP: 1.2 IU/L
[5]
  TERMINAL_BW: 182 g
  APTT: 16 s
  Bas: 0%
  Eos: 0.6%
  Fbg: 201.2 mg/dL
  Hb: 13.9 g/dL
  Ht: 42.2%
  Lym: 73.6%
  MCH: 22.2 pg
  MCHC: 33%
  MCV: 67.3 fL
  Mono: 5%
  Neu: 20.8%
  PT: 12.6 s
  Plat: 131.8 x10_4/uL
  RBC: 627.6 x10_4/ul
  Ret: 9.9%
  WBC: 86 x10_2/uL
  KIDNEY_L: 0.8 g
  KIDNEY_R: 0.9 g
  KIDNEY_TOTAL: 1.7 g
  LIVER: 8.3 g
  A/G: 2.1
  ALP: 1017.8 IU/L
  ALT: 45.4 IU/L
  AST: 76.4 IU/L
  BUN: 11.4 mg/dL
  CRE: 0.4 mg/dL
  Ca: 10.7 mg/dL
  Cl: 100.6 meq/L
  DBIL: 0 mg/dL
  GLC: 220.8 mg/dL
  IP: 11.2 mg/dL
  K: 4.3 meq/L
  LDH: 175 IU/L
  Na: 137.8 meq/L
  PL: 158.4 mg/dL
  RALB: 3.8 g/dL
  TBIL: 0.2 mg/dL
  TC: 89.6 mg/dL
  TG: 53 mg/dL
  TP: 5.7 g/dL
  gamma-GTP: 1.6 IU/L
[6]
  TERMINAL_BW: 176.6 g
  APTT: 16.5 s
  Bas: 0%
  Eos: 0.6%
  Fbg: 210.4 mg/dL
  Hb: 14.8 g/dL
  Ht: 44.4%
  Lym: 68.4%
  MCH: 21.4 pg
  MCHC: 33.2%
  MCV: 64.4 fL
  Mono: 7.4%
  Neu: 24.2%
  PT: 13 s
  Plat: 111.1 x10_4/uL
  RBC: 690.2 x10_4/ul
  Ret: 8.7%
  WBC: 61.8 x10_2/uL
  KIDNEY_L: 0.8 g
  KIDNEY_R: 0.8 g
  KIDNEY_TOTAL: 1.6 g
  LIVER: 7.3 g
  A/G: 2.2
  ALP: 951.6 IU/L
  ALT: 45.2 IU/L
  AST: 77.6 IU/L
  BUN: 16 mg/dL
  CRE: 0.5 mg/dL
  Ca: 10.3 mg/dL
  Cl: 102.4 meq/L
  DBIL: 0.008 mg/dL
  GLC: 190.6 mg/dL
  IP: 10.1 mg/dL
  K: 4.5 meq/L
  LDH: 203.2 IU/L
  Na: 138 meq/L
  PL: 144.2 mg/dL
  RALB: 4 g/dL
  TBIL: 0.2 mg/dL
  TC: 94.4 mg/dL
  TG: 23.4 mg/dL
  TP: 5.9 g/dL
  gamma-GTP: 1.4 IU/L
[7]
  TERMINAL_BW: 175.4 g
  APTT: 16.4 s
  Bas: 0%
  Eos: 1%
  Fbg: 196.4 mg/dL
  Hb: 14.5 g/dL
  Ht: 43.8%
  Lym: 76.8%
  MCH: 21.6 pg
  MCHC: 33.1%
  MCV: 65.2 fL
  Mono: 8%
  Neu: 14.4%
  PT: 13.2 s
  Plat: 100.6 x10_4/uL
  RBC: 672.6 x10_4/ul
  Ret: 9.7%
  WBC: 79.6 x10_2/uL
  KIDNEY_L: 0.8 g
  KIDNEY_R: 0.8 g
  KIDNEY_TOTAL: 1.6 g
  LIVER: 7.3 g
  A/G: 2.1
  ALP: 950 IU/L
  ALT: 37.4 IU/L
  AST: 75.8 IU/L
  BUN: 15.2 mg/dL
  CRE: 0.5 mg/dL
  Ca: 10.6 mg/dL
  Cl: 102.4 meq/L
  DBIL: 0.04 mg/dL
  GLC: 182.8 mg/dL
  IP: 9.8 mg/dL
  K: 4.4 meq/L
  LDH: 153.2 IU/L
  Na: 137.4 meq/L
  PL: 147.2 mg/dL
  RALB: 3.8 g/dL
  TBIL: 0.3 mg/dL
  TC: 93 mg/dL
  TG: 22.4 mg/dL
  TP: 5.6 g/dL
  gamma-GTP: 1.2 IU/L
[8]
  TERMINAL_BW: 177.1 g
  APTT: 16 s
  Bas: 0%
  Eos: 1.2%
  Fbg: 181.2 mg/dL
  Hb: 14 g/dL
  Ht: 42%
  Lym: 77.2%
  MCH: 21.6 pg
  MCHC: 33.2%
  MCV: 65.1 fL
  Mono: 9.6%
  Neu: 12.6%
  PT: 12.9 s
  Plat: 118.7 x10_4/uL
  RBC: 645.8 x10_4/ul
  Ret: 7.5%
  WBC: 85.4 x10_2/uL
  KIDNEY_L: 0.8 g
  KIDNEY_R: 0.9 g
  KIDNEY_TOTAL: 1.7 g
  LIVER: 8.5 g
  A/G: 2.1
  ALP: 1067.4 IU/L
  ALT: 40.2 IU/L
  AST: 85.8 IU/L
  BUN: 15.6 mg/dL
  CRE: 0.6 mg/dL
  Ca: 11 mg/dL
  Cl: 105.2 meq/L
  DBIL: 0.016 mg/dL
  GLC: 179 mg/dL
  IP: 8.6 mg/dL
  K: 5.3 meq/L
  LDH: 202.8 IU/L
  Na: 137.8 meq/L
  PL: 121.2 mg/dL
  RALB: 3.7 g/dL
  TBIL: 0.4 mg/dL
  TC: 68.2 mg/dL
  TG: 42.6 mg/dL
  TP: 5.5 g/dL
  gamma-GTP: 1.2 IU/L
